Assay results taken from patent US10519179B2, “Highly efficient NRF2 activators-co-releasing molecule hybrids, their use in the treatment of inflammatory or cardiovascular diseases and their process of preparation” (Centre National de la Recherche Scientifique, priority 2015, dated 2019).
“Also recorded” adds a separate entry of the source. Counter-ions that a name gives are not always drawn.

Assays:
HO-1 [1] = experiment: HO-1 protein expression in human THP-1 cells; format: cell-based
Method: (§1) Human monocytes (THP-1 cells) were cultured in RPMI 1640-Glutamax medium supplemented with 1% penicillin/streptomycin, 1% sodium pyruvate and 10% fetal bovine serum (RPMIc). Cells at confluence were washed with PBS and treated with compound C at different concentrations for 6 h according to the experimental protocol. Compound C was dissolved in DMSO at 0.1% as a final concentration in complete medium.

IL-1β = IL-1β production in LPS-treated human THP-1 cells (ELISA); format: cell-based; conditions: 5 μM, 24 h
Method: IL-1β production was measured in the supernatants of human THP-1 cells treated with LPS (100 μg/ml) in the presence or absence of 5 μM comp. C, DMF or CORM-401. After 24 h incubation, the medium was collected and IL-1β levels quantified using an ELISA kit (R&D Systems) following the manufacturer's instructions.

HO-1 [2] = experiment: HO-1 protein expression in BV2 microglia (Western blot); format: cell-based, mouse; conditions: cells and concentration not given
Method: (§2) Cells were grown in an atmosphere of 5% CO2 at 37° C. in either 75 cm^2 flasks, 100 mm diameter Petri dishes, 6- or 24-well plates containing medium supplemented with 10% fetal bovine serum (Lonza) and penicillin (100 U·mL^−1)/streptomycin ([…]; Life Technologies). BV2 mouse microglial cells were grown in RPMI-1640 containing 2 g·L^−1 glucose and supplemented with 0.3 g·L^−1 1-glutamine.
To determine HO-1 protein expression, BV2 microglia were incubated with 10 μM hybrids (compounds) for 6 h. […] Protein concentrations were measured using a Pierce BCA Protein Assay kit (Thermo Scientific).
(§3) Whole cell lysates (20 μg protein/sample) were resolved on 12% acrylamide gels, respectively, and proteins transferred to polyvinylidene difluroride membranes (Millipore, Brussels, Belgium). […] Bands were detected with chemiluminescent substrates (Pierce ECL®, Thermo Scientific or RevelBIOt® Intense, Ozyme) and images captured using a G:Box F3 Imagery Station and GeneSys Software (Syngene, Cambridge, UK). […]

Nrf2 [3] = experiment: nuclear expression of Nrf2 in BV2 microglia (Western blot); format: cell-based, mouse; conditions: cells and concentration not given
Method: as §2
BV2 microglia were incubated with 10 μM of hybrids for 2 h to assess nuclear translocation of Nrf2. Nuclear fractions were isolated using a Nuclear Extract Kit from Active Motif (La Hulpe, Belgium), according to the manufacturer's instructions, and stored at −80° C. Protein concentrations were measured using a Pierce BCA Protein Assay kit (Thermo Scientific).
as §3

[4] = blood HbCO levels in mice after oral gavage; format: in vivo; conditions: oral gavage, 1, 3 and 6 hours after administration
Method: Male C57 BL/6J mice were used for all experiments (Janvier Labs, France). Animals received at 8 weeks of age were placed on a standard diet and allowed to acclimatize for 2 weeks on a 12 hr light/dark cycle. All experiments were performed in compliance with INSERM guidelines for the use of animals and approved by the institutional review board at Paris-Est Creteil Val de Marne University. Mice were administered by oral gavage with a single dose of the following: 1) 200 μl of sesame oil (vehicle, control group); 2) Compound A (3 mg in 200 μl sesame oil); 3) Compound B (3 mg in 200 μl sesame oil).
Mice were sacrificed 6 hr after treatment by cervical dislocation. Livers, lungs, hearts and brains were excised and snap frozen for western blot analysis. Tissue samples were homogenized in lysis buffer (150 mM sodium chloride, 1.0% Triton X-100, 0.5% sodium deoxycholate 0.1% sodium dodecyl sulphate, 50 mM Tris, pH 8.0). Lysates were centrifuged for 20 min at 15,000 g at 4° C. and supernatants were collected and stored at −80° C. for further analysis. […] The release of CO from compounds of the invention was assessed spectrophotometrically by measuring the conversion of deoxyhemoglobin to carbonmonoxy hemoglobin (HbCO). […] The percent of HbCO was then calculated based on the absorbances at 420 and 432 nm with the reported extinction coefficients for mouse blood. […]

H9c2 cardiomyocytes = experiment: cytotoxicity (LDH assay) in H9c2 cardiomyocytes; format: cell-based, rat; conditions: 24 h, 20% or 5% oxygen, concentrations used
Method: (§4) Cytotoxicity was evaluated in THP-1 cells and H9c2 cardiomyocytes 24 h after incubation with increasing concentrations of compound C.
H9c2 cardiomyocytes were cultured as previously (Example 4.2).
(§5) Cell viability was assessed using the previously described LDH assay.

HO-1 [5] = experiment: HO-1 protein expression in H9c2 cardiomyocytes; format: cell-based, rat; conditions: 1 μM to 10 μM, 6 h or 24 h, 20% or 5% O2
Method: The assessment of HO-1 induction by western blotting was performed as previously (Example 4.1). H9C2 cells rat cardiomyocytes were cultured in Dubelcco's Modified Eagle Medium containing: glucose 4.5 g/l, L-glutamine 2 mM, pyruvate) supplemented with fetal bovine serum (FBS) 10%, a mixture of penicillin (10,000 IU/ml)/streptomycin (10 mg/ml) (Gibco Life Technologies) and sodium Pyruvate 1% (Gibco Life Technologies). Cells were grown and subcutlured either in a normal incubator at 20% O2 or in a dedicated chamber in which the O2 levels was kept constantly at 5%, a value which reflects more closely the O2 concentrations found in vivo. For the adaptation of cells at 5 O2, cells were grown and passaged at least twice before conducting any experiment.
H9c2 cardiomyocytes were then incubated with increasing concentration of compound C (1 μM to 10 μM) for 6 h or 24 h either at 20% or 5% O2.

human THP-1 cells [6] = experiment: cytotoxicity (LDH assay) in THP-1 cells; format: cell-based; conditions: 24 h, increasing concentrations, up to 10 μM
Method: as §4
as §1, with “concentrations and” for “concentrations”, “different periods of time” for “6 h”
as §5

[7] = CO release in COP-1 fluorescence assay in buffer; format: physicochemical; conditions: in vitro conditions described in the examples, not specified further
Method: The release of CO from hybrids was assessed using COP-1, a fluorescent probe sensitive to CO. The fluorescence intensity of COP-1 (2 μM, Δex=475 nm) in buffer was measured in a cuvette to obtain a background fluorescence spectrum and spectra were then recorded immediately after addition of 50 μM tested compounds. The mean fluorescence intensity (MFI) of 3 independent reading was calculated using the fluorescence intensity values recorded at 507 nm after 60 min.

Nrf2 [8] = experiment: Nrf2 expression in human THP-1 cells; format: cell-based
Method: as §1

HO-1 [9] = experiment: cardiac HO-1 mRNA expression in mice after oral gavage; format: in vivo; conditions: 40 mg/kg oral gavage, 6 h
Method: (§6) FIG. 11 represents blood HbCO levels in vivo after compound C were administered to mice by oral gavage (FIG. 11A); mRNA expression of Nrf2 dependent genes (HO-1 and NQO-1) in the heart of mice after HbCO after administration of compound C (40 mg/kg) by oral gavage (FIG. 11B).

human THP-1 cells [10] = experiment: CO delivery to human THP-1 cells loaded with COP-1; format: cell-based; conditions: 10 μM, 15 min at 37° C.
Method: To detect whether the compounds delivered CO to cells, human THP-1 cells were initially suspended in Dulbecco Phosphate Buffer Solution (+Ca, +Mg; Gibco® Cell Culture, Life Technologies) and then treated with compounds at a concentration of 10 μM for 15 min at 37° C. in 5 ml polypropylene round-bottom tubes (BD Falcon, Dominique Dutscher). Cells were then incubated for 30 min with 1 μM COP-1. Intracellular fluorescence of COP-1 was measured using a CyAnTM ADP LX7 Analyzer (Beckman Coulter) as previously reported.

NQO1 = experiment: cardiac NQO1 mRNA expression in mice after oral gavage; format: in vivo; conditions: 40 mg/kg oral gavage, 24 h
Method: as §6

BV2 microglia cells = experiment: reduced glutathione (GSH), DTNB colorimetric assay in BV2 microglia; format: cell-based, mouse; conditions: 10 μM
Method: The 5,5′ dithiobis-(2-nitrobenzoic acid) (DTNB) colorimetric assay was used for the measurement of reduced glutathione (GSH). Briefly, BV2 microglia cells were seeded in 6-well-plates and incubated with 10 μM hybrids and dimethyl fumarate (DMF, positive control) for 3, 6 and 24 h. At the end of the incubation period, cells were initially washed with phosphate buffers solution, then scraped in 600 μL of 2% (w/v) 5-sulposalicylic acid solution and transferred to a 1.5 ml microtube, and finally centrifuged for 5 min at 10,000×g. An aliquot of the supernatant (500 μl) was then reacted with 0.5 ml DTNB solution (0.3 M sodium phosphate buffer, 10 mM EDTA and 0.2 mM DTNB) and after 5 min the absorbance was read spectrophotometrically at 412 nm (extinction coefficient 14.3 mM^−1 cm^−1).

[11] = THP-1 cells, 6 h, different concentrations
[12] = identical concentrations (5 μM)

Row | Compound | concentration from which an increase in HO-1 protein expression starts (HO-1 [1]; THP-1 cells, 6 h) | IL-1β production (IL-1β) | HO-1 protein expression (summary statement) (HO-1 [2]) | HO-1 protein expression (HO-1 [1]; [11]) | HO-1 activation compared with CORM-401 and DMF (HO-1 [1]; [12]) | nuclear expression of Nrf2 (summary statement) (Nrf2 [3]) | HbCO levels [4] | toxic effect toward H9c2 cardiomyocytes (H9c2 cardiomyocytes) | HO-1 protein expression (HO-1 [5]) | toxicity toward human THP-1 cells (human THP-1 cells [6]) | CO release (summary statement) [7] | activation of Nrf2 (Nrf2 [8]; [11]) | Nrf2 activation compared with CORM-401 and DMF (Nrf2 [8]; [12]) | cardiac HO-1 mRNA expression (HO-1 [9]) | CO release in cells (intracellular COP-1 fluorescence) (human THP-1 cells [10]) | cardiac NQO1 mRNA expression (NQO1) | intracellular reduced glutathione (GSH) (BV2 microglia cells; 3 or 6 h) | intracellular reduced glutathione (GSH) (BV2 microglia cells; 24 h)
1 | CN(CC(=O)O)C(=S)[S-].[C-]#[O+].[C-]#[O+].[C-]#[O+].[C-]#[O+].[Mn] [CORM-401, reference compound] | 10 fold this concentration is not sufficient | no effect |  |  |  |  |  |  |  |  |  |  |  |  |  |  |  | 
2 | COc1ccc(/C=C/C(=O)OCCN(C)C2=[S][Mn][S]2)cc1OC.[C-]#[O+].[C-]#[O+].[C-]#[O+].[C-]#[O+] [Compound C] | 1 µM | decreased IL-1β production | two fold increase | induction of HO-1 protein expression; also recorded: concentration-dependent increase in HO-1 protein expression | more potent than DMF and comparative compound CORM-401 | two fold increase | promotes an increase in HbCO levels | does not cause any visible toxic effect | induced an increase in HO-1 protein expression; also recorded: significant expression of HO-1 | do not show significant toxicity | significant amount of CO | strongly promoted the activation of Nrf2 | more potent than DMF and comparative compound CORM-401 | promotes an increase | significant and high amount of CO | promotes an increase |  | 
3 | COC(=O)/C=C/C(=O)OC [DMF, dimethyl fumarate] | 10 fold this concentration is not sufficient | no effect |  |  |  |  |  |  |  |  |  |  |  |  |  |  | raised the level of GSH from 6 h of treatment | significant raise
